Laboratory results: patent US11040083B2, “Polypeptides comprising vinculin binding sites for the treatment of proliferation and/or adhesion related diseases” (PARIS SCIENCES ET LETTRES—QUARTIER LATIN, priority 2015, dated 2021)
No end group written: not given here.

Columns and labels:
talin H1-H4 [1] = biological target: T1, talin H1-H4 (Homo sapiens, UniProt Q9Y490); assay: Native-PAGE gel shift; type: binding
Protocol: Talin H1-H4 and IpaA peptides/proteins were incubated in binding buffer for 1 hour at 4° C. After incubation, the protein/peptides were mixed in a 2× Native loading buffer (62.5 mM Tris pH 6.8, Glycerol 25%) and separated by Tris-Glycine Native-PAGE electrophoresis. Gels were stained using standard colloidal Coomassie stain.
Talin H1-H4 and IpaA peptides/proteins at different molar ratios were incubated in binding buffer (25 mM Tris pH 7.4, 100 mM NaCl and 1 mM β-Mercaptoethanol) for 1 hour at 4° C. After incubation, the protein/peptides were mixed in a 2× Native loading buffer (62.5 mM Tris pH 6.8, Glycerol 25%) and separated by Tris-Glycine Native-PAGE electrophoresis. The Native PAGE electrophoresis gels were stained using standard colloidal Coomassie stain.

talin H1-H4 [2] = biological target: T1, talin H1-H4; assay: Isothermal titration calorimetry; type: binding; details: for N (stoichiometry): ITC non-linear fit; for N (stoichiometry) / ΔG free enthalpy / ΔH enthalpy / −TΔS entropic contribution: 25° C.
Protocol: Vinculin, IpaA proteins and peptides were extensively dialyzed in binding buffer (25 mM Tris pH 7.4, 100 mM NaCl and 1 mM β-Mercaptoethanol). The final concentration of all proteins/peptides was measured using a BCA test (Thermo Scientific). Talin-IpaA binding was measured by microcalorimetry using an ITC200 calorimeter (MicroCal) at 25° C. 200 μL of 20-100 μM of talin H1-H4 protein was added to the cell and binding in the presence of different concentrations of IpaA VBS1, VBS2 or VBS3 peptides was measured. In other experiments, 200 μL of a 16 μM equimolar mix of A483:HVD1 was incubated for one hour at room temperature prior to addition to the cell. Binding to talin H1-H4 (100 μM) was measured. Typically, 20-40 injections of 2 μL of ligand were made with intervals of 320 seconds between each addition, with a reference power of 12 μcal/sec. Data were analyzed using the MicroCal software provided by manufacturer.

HeLa cells = assay: Immunofluorescence of V5-tagged IpaA derivatives and talin; type: cell-based; details: V5 epitope and talin staining
Excerpt: FIG. 8 is a set of photographs showing the interaction between IpaA VBS3 and talin (H1-H4). A, IpaA constructs used in this study. The VBSs are depicted as boxes in IpaA full length (IpaA-FL), with the residue number corresponding to the first residue of the corresponding VBS. The first and last IpaA residues are annotated for the IpaA truncated derivatives. V5: V5 epitope. B, HeLa cells were transfected with IpaA derivatives, fixed and processed for immunofluorescence staining of the V5 epitope and talin. Representative fluorescence images are shown, with a larger magnification of the inset boxed in the left panels. Scale bar=5 μm. C, Native PAGE analysis of IpaA VBSs and talin H1-H4 interaction. 1. Purified talin H1-H4 was incubated with the indicated IpaA VBS peptides and analyzed using 6-18% gradient native PAGE. The talin H1-H4: IpaA VBS molar ratio is indicated, with 1 corresponding to a final concentration of 25 μM. The migration of talin H1-H4 and of the talin H1-H4:IpaA VBS3 complex are indicated.

melanocytes = assay: Time lapse cell migration; type: cell-based; details: 6 movies per sample, preliminary
[3] = Size exclusion chromatography, hydrodynamic radius; type: physicochemical
Protocol: The purified proteins HVD1, A483, A524 and Talin H1-H4 were used at an equimolar concentration of 20 μM and incubated at 4° C. for one hour in binding buffer. The protein mixtures (200 μL) were injected in a FPLC chromatography system (FPLC Pharmacia) at 16° C. in a Superdex 75 HR 10/30 column (GE Healthcare) previously equilibrated with 10 volumes of binding buffer. The SEC system was calibrated with a Low Molecular Weight Gel Filtration Kit (ref. 17-0442-01, GE Healthcare) and the hydrodynamic radius (Angstroms) of the reference proteins (BSA, OVA, ChyA and RibA) correlated with the elution volume (Ve) using an Euler exponential equation: Hydrodynamic radius (Ang)=210.46 e^−0.189 Ve (mL), with a correlation squared coefficient of R^2=0.9973. Fractions corresponding to elution volume 8-10 mLs were recovered, and analyzed by SDS-PAGE using 15% polyacrylamide gels.

T1 sequence (Q9Y490 482-636): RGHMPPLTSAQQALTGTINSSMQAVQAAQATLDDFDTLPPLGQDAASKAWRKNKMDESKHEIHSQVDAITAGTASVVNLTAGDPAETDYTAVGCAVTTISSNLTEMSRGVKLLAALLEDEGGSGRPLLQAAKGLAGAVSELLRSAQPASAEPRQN

CC[C@H](C)[C@H](N)C(=O)N[C@@H](Cc1ccc(O)cc1)C(=O)N[C@@H](CCCCN)C(=O)N[C@@H](C)C(=O)N[C@@H](C)C(=O)N[C@@H](CCCCN)C(=O)N[C@@H](CC(=O)O)C(=O)N[C@H](C(=O)N[C@H](C(=O)N[C@H](C(=O)N[C@@H](CO)C(=O)N[C@@H](CC(C)C)C(=O)N[C@@H](CO)C(=O)N[C@@H](CCCCN)C(=O)N[C@H](C(=O)N[C@@H](CC(C)C)C(=O)N[C@@H](CCCCN)C(=O)N[C@@H](CC(N)=O)C(=O)N[C@H](C(=O)N[C@@H](CC(N)=O)C(=O)N[C@@H](CCCCN)C(=O)N[C@@H](CC(=O)O)C(=O)O)[C@@H](C)CC)C(C)C)[C@@H](C)O)[C@@H](C)O)C(C)C [IpaA VBS1]
formation of a complex with talin H1-H4 (talin H1-H4 [1]): did not induce the formation
N (stoichiometry) (talin H1-H4 [2]): 1.22
ΔG free enthalpy (talin H1-H4 [2]; ITC): -6.575 kcal/mol
ΔH enthalpy (talin H1-H4 [2]; ITC): -4.104 kcal/mol
−TΔS entropic contribution (talin H1-H4 [2]; ITC): -2.471 kcal/mol

CC[C@H](C)[C@H](NC(=O)[C@H](CC(C)C)NC(=O)[C@H](CO)NC(=O)[C@@H](NC(=O)[C@H](CC(C)C)NC(=O)[C@H](CC(N)=O)NC(=O)[C@H](CO)NC(=O)[C@H](CC(C)C)NC(=O)[C@H](CO)NC(=O)[C@H](CC(N)=O)NC(=O)[C@@H](NC(=O)[C@@H](NC(=O)[C@H](CCCCN)NC(=O)[C@H](CCCCN)NC(=O)[C@H](CO)NC(=O)[C@H](C)NC(=O)[C@H](CCC(=O)O)NC(=O)[C@H](Cc1ccccc1)NC(=O)[C@@H](NC(=O)[C@@H](NC(=O)[C@H](CCC(=O)O)NC(=O)[C@H](CCCNC(=N)N)NC(=O)[C@@H](N)[C@@H](C)O)[C@@H](C)O)[C@@H](C)CC)C(C)C)[C@@H](C)O)[C@@H](C)CC)C(=O)NCC(=O)N[C@H](C(=O)O)[C@@H](C)O [IpaA VBS3]
concentration at which the complex with talin H1-H4 / migration shift could be detected (talin H1-H4 [1]): 25 µM
N (stoichiometry) (talin H1-H4 [2]): 0.893
ΔG free enthalpy (talin H1-H4 [2]; ITC): -9.219 kcal/mol
ΔH enthalpy (talin H1-H4 [2]; ITC): -6.393 kcal/mol
−TΔS entropic contribution (talin H1-H4 [2]; ITC): -2.826 kcal/mol
ΔG free enthalpy (talin H1-H4 [2]; ITC, listed as IpaA VBS3/TBS): -9.07 ± 0.103 kcal/mol

IYEKAKEVSSALSKVLSKI (IpaA VBS2; listed as Shigella flexneri) [purified synthetic IpaA VBS peptide]
formation of a complex with talin H1-H4 (talin H1-H4 [1]): did not induce the formation
interaction with talin H1-H4 by ITC (talin H1-H4 [2]; ITC): did not show any interaction

YTKKELIECARRVSEKVSHVLAALQA [talin H46, reference compound]
formation of a complex with talin H1-H4 (talin H1-H4 [1]): formed a complex
Kd (talin H1-H4 [2]): 60 nM
ΔH enthalpy (talin H1-H4 [2]; ITC): -16.97 kcal/mol
−TΔS entropic contribution (talin H1-H4 [2]; ITC): +7200 cal/mol

B1: IpaA 7-522: V5-tagged IpaA truncated derivative (protein)
chain: TQAPTFLYKATSPSSTEYSELKSKISDIHSSQTSLKTPASVSEKENFATSFNQKCLDFLFSSSGKEDVLRSIYSNSMNAYAKSEILEFSNVLYSLVHQNGLNFENEKGLQKIVAQYSELIIKDKLSQDSAFGPWSAKNKKLHQLRQNIEHRLALLAQQHTSGEALSLGQKLLNTEVSSFIKNNILAELKLSNETVSSLKLDDLVDAQAKLAFDSLRNQRKNTIDSKGFGIGKLSRDLNTVAVFPELLRKVLNDILEDIKDSHPIQDGLPTPPEDMPDGGPTPGANEKTSQPVIHYHINNDNRTYDNRVFDNRVYDNSYHENPENDAQSPTSQTNDLLSRNGNSLLNPQRALVQKVTSVLPHSISDTVQTFANNSALEKVFNHTPDNSDGIGSDLLTTSSQERSANNSLSRGHRPLNIQNSSTTPPLHPEGVTSSNDNSSDTTKSSASLSHRVASQINKFNSNTDSKVLQTDFLSRNGDTYLTRETIFEASKKVTNSLSNLISLIGTKSGTQERELQ
modifications: left off: small tags and cut ends
notes: V5-tagged IpaA truncated derivative
localization relative to talin (HeLa cells): localized to focal adhesions and other talin-containing structures

B2: IpaA 7-422: V5-tagged IpaA truncated derivative in which the IpaA VBS3 was deleted (protein)
chain: TQAPTFLYKATSPSSTEYSELKSKISDIHSSQTSLKTPASVSEKENFATSFNQKCLDFLFSSSGKEDVLRSIYSNSMNAYAKSEILEFSNVLYSLVHQNGLNFENEKGLQKIVAQYSELIIKDKLSQDSAFGPWSAKNKKLHQLRQNIEHRLALLAQQHTSGEALSLGQKLLNTEVSSFIKNNILAELKLSNETVSSLKLDDLVDAQAKLAFDSLRNQRKNTIDSKGFGIGKLSRDLNTVAVFPELLRKVLNDILEDIKDSHPIQDGLPTPPEDMPDGGPTPGANEKTSQPVIHYHINNDNRTYDNRVFDNRVYDNSYHENPENDAQSPTSQTNDLLSRNGNSLLNPQRALVQKVTSVLPHSISDTVQTFANNSALEKVFNHTPDNSDGIGSDLLTTSSQERSANNSLSRGHRPLN
modifications: left off: small tags and cut ends
notes: V5-tagged IpaA truncated derivative in which the IpaA VBS3 was deleted
localization relative to talin (HeLa cells): did not co-localize with talin

B3: GFP-A524 (protein)
chain: KSKDITKSTTEHRINNKLKVTDANIRNYVTETNADTIDKNHAIYEKAKEVSSALSKVLSKIDDTSAELLTDDISDLKNNNDITAENNNIYKAAKDVTTSLSKVLKNINKD
modifications: left off: large carriers
effect on cell migration / motility (melanocytes): did not drastically alter the motility

B4: HVD1: vinculin derivative containing only amino acid residues 1 to 257 of HV (D1 domain) (protein, listed as Homo sapiens)
chain: MPVFHTRTIESILEPVAQQISHLVIMHEEGEVDGKAIPDLTAPVAAVQAAVSNLVRVGKETVQTTEDQILKRDMPPAFIKVENACTKLVQAAQMLQSDPYSVPARDYLIDGSRGILSGTSDLLLTFDEAEVRKIIRVCKGILEYLTVAEVVETMEDLVTYTKNLGPGMTKMAKMIDERQQELTHQEHRVMLVNSMNTVKELLPVLISAMKIFVTTKNSKNQGIEEALKNRNFTVEKMSAEINEIIRVLQLTSWDEDA
modifications: Vinculin domain D1 (HVD1)
Radiusg (hydrodynamic radius of a globular protein with the same MW) [3]: 24.36 Ang
Radiusm/Radiusg (RH/RG ratio) [3]: 1.16
Radiusm (estimated hydrodynamic radius) ([3]; SEC Superdex 75, 20 μM equimolar): 28.25 Ang
